Experiments:
[1] = tested on: MRC-5 cells; assay: Uptake of radio-labeled (3H) compounds by MRC-5 fibroblast cells; conditions: after 48 hours
Method: For MRC-5 cells, (3H)—carnosine and acetyl carnosine were added to the medium of near confluent 60mm culture dishes. At different time points cells were washed three times with phosphate buffered saline, cells harvested and cell-associated radioactivity determined using Packard Starscint scintillation fluid.
The rate of uptake of carnosine and acetyl-carnosine by MRC-5 cells was studied using radio-labeled tritiated (3H) carnosine and acetyl-carnosine compounds. The uptake was measured in MRC-5 cells at passage 28 over a 48 hour period (FIG. 3A).

[2] = Fate of compound after cellular uptake; type: cell-based; conditions: compared with carnosine
Method: Experiments were conducted to determine the fate of acetyl-carnosine and carnosine after cellular uptake. […] A slower metabolism and incorporation into other proteins may be one reason for acetyl-carnosine having higher effective intracellular concentrations compared with carnosine despite its lower overall uptake.

[3] = tested on: non-enzymic glycation; assay: Anti-glycation activity; type: biochemical
[4] = tested on: MRC-5 cells; assay: Effect of carnosine derivatives on cell growth / toxicity in MRC-5 cell cultures; type: cell-based, human; design: key to Effect on cell growth (score): (0) Toxic to cell growth; (10) Confluent cell growth; conditions: MRC-5 cells, scale 0 toxic to 10 confluent
Method: (§1) MRC -5 cells (fetal lung fibroblasts) were grown in Dulbecco's modification of Eagles' minimum essential medium (DMEM Gibco BRL Cat. No. 12800-017) containing 0.45% glucose, or MEM (Gibco BRL Cat. No. 612800-017) containing 0.1% glucose. Both media contained 10% fetal calf scrum (TRACE Biosciences Cat. No. 15-010-0500V) and Penicillin/Streptomycin 5000 IU, 5000 μg/ml (TRACE Biosciences Cat. No. 21-140-0100V). Cells were grown in […] flasks or in dishes (35 mm or 60 mm, Nunc) at 37° C. with 5% CO2. Cells were harvested with trypsin (TRACE Biosciences Cat. No. 21-163-0100V) and counted with a model ZF6 Coulter Counter. Cells were split in ratios of 1:2 or 1:4. Population doublings (PDs) were calculated from the ratio of the initial number of cells plated to the yield of cells after a period of time. This provides an accurate measure of cell growth, with the split ratios 1:2 and 1:4 corresponding to one and two passages respectively, which are broadly equivalent to population doublings. The media was changed every 5 days or when cells became confluent.
MRC-5 cells were used to observe the toxicity of a series of derivatives of carnosine on cell growth. Cell cultures were grown in DMEM media with 10% fetal calf serum and supplemented with the following carnosine analogues: carnosine ethyl ester, carnosine iso-propyl ester, carnosine n-butyl ester, carnosine n-hexyl ester, N-propyl carnosine, N-hexanoyl carnosine, N-trimethyl acetyl carnosine, N-acetyl carnosine methyl ester, N-acetyl carnosine ethyl ester and N-acetyl carnosine, […] Cells were also grown in DMEM supplemented with carnosine at 20 mM. […] Even at lower concentrations cell morphology was that of cells that have reached senescence i.e. broad flat cells with long process reaching out to other cells. Cell numbers were less than in the control flasks. […] As shown in FIG. 1 Acetyl-carnosine achieved a lifespan 5 PDs greater than the control and 6.7 PDs greater than carnosine over a 43 day period. […] In the early phase of the experiment growth rates were markedly greater than with the other compounds (FIG. 1).

[5] = tested on: human blood peptidases; assay: Stability in human blood serum / attack by human blood peptidases; type: in vitro ADME
[6] = tested on: MRC-5 cells; assay: Lifespan (population doublings) of MRC-5 cells in culture; type: cell-based, human
Method: Cultures were split in a 1:4 ratio when flasks were approximately 70-80% confluent.
as §1
MRC-5 cells were used to observe the toxicity of a series of derivatives of carnosine on cell growth. Cell cultures were grown in DMEM media with 10% fetal calf serum and supplemented with the following carnosine analogues: carnosine ethyl ester, carnosine iso-propyl ester, carnosine n-butyl ester, carnosine n-hexyl ester, N-propyl carnosine, N-hexanoyl carnosine, N-trimethyl acetyl carnosine, N-acetyl carnosine methyl ester, N-acetyl carnosine ethyl ester and N-acetyl carnosine, at concentrations ranging between 1 mM to 20 mM. Cells were also grown in DMEM supplemented with carnosine at 20 mM. […] Even at lower concentrations cell morphology was that of cells that have reached senescence i.e. broad flat cells with long process reaching out to other cells. Cell numbers were less than in the control flasks. […] As shown in FIG. 1 Acetyl-carnosine achieved a lifespan 5 PDs greater than the control and 6.7 PDs greater than carnosine over a 43 day period. […] In the early phase of the experiment growth rates were markedly greater than with the other compounds (FIG. 1).
In fact all populations of MRC-5 cells grown in DMEM supplemented with acetyl-carnosine preserved a younger phenotype for much longer than cells grown in DMEM supplemented with carnosine or its analogues.
Under control conditions the range was 57.3-64.5 PDs (n=5). With the addition of carnosine (20mM) to the medium the range was 61.8-63.7 PDs (n=5) with an average increase of 1.4 PDs which represents a 3 fold increase in cell number. However, when acetyl-carnosine (5 mM) was added to the medium, the range was 62.3-70.3 PDs (n=5) with an average increase of 5 PDs compared with the controls. This represents a 32 fold increase in cell number.

[7] = Anti-oxidant activity; type: biochemical; conditions: parent compound = carnosine

SMILES: CC(=O)NCCC(=O)N[C@@H](Cc1cnc[nH]1)C(=O)O [N-acetyl carnosine]
- Number of cells greater than with carnosine ([1]; MRC-5 cells): 42%
- Number of cells growing in supplemented media ([1]; MRC-5 cells): 3.4×10^6
- Uptake relative to carnosine on a per cell basis ([1]; MRC-5 cells): 35%
- Uptake of (3H) compound by MRC-5 cells ([1]; cells at passage 28): 0.16%
- Residence time in the cell before degradation [2]: considerably longer residence time
- Effectiveness as an antiglycation agent [3]: ineffective
- Effect on cell growth (score) ([4]; 0.5 mM): 7
- Effect on cell growth (score) ([4]; 1 mM): 8
- Effect on cell growth (score) ([4]; 2 mM): 9
- Effect on cell growth (score) ([4]; 5 mM): 10
- Effect on cell growth (score) ([4]; 10 mM): 9
- Effect on cell growth (score) ([4]; 20 mM): 8
- Resistance to attack by human blood peptidases [5]: almost completely resistant
- Stability in human blood serum ([5]; human blood serum): quite stable
- Range of lifespans of populations of MRC-5 cells ([6]; 5 mM in medium, n=5): 62.3-70.3 PDs
- Lifespan greater than carnosine ([6]; 5 mM vs carnosine 20 mM, passage 55 cells, over a 43 day period): 6.7 PDs
- Lifespan of MRC-5 cells in culture, Population Doublings (PD) ([6]; 5 mM, commenced at passage 55): 15.2 PD
- Average increase in lifespan compared with controls ([6]; 5 mM, n=5): 5 PDs
- Lifespan greater than the control ([6]; 5 mM, passage 55 cells, over a 43 day period): 5 PDs
- Increase in cell number ([6]; 5 mM, worked out from the PD increase): 32 fold
- Lifespan of MRC-5 cells compared with carnosine (FIG. 2) ([6]; acetyl-carnosine 5 mM vs carnosine 20 mM, commenced at passage 32): markedly increased the lifespan
- Increase in cell mass ([6]; cells exposed to supplemented media): 32 fold
- Antioxidant effectiveness relative to the parent compound [7]: 60%
